Measurements: PubChem BioAssay AID1963970 (Molecular Pharmacology Branch, DTP, NCI, 2024)

Test system: 931267-113-T-J1-PDC multicell spheroid viability
Test: Anticancer human tumor 931267-113-T-J1-PDC patient-derived colon adenocarcinoma cell line growth inhibition [PI3K]
Conditions: for IC50: curve of first compound; for viability, T/C: stronger effect = lower value; active = viability on the fitted dose curve at most 10% of control; inactive = the rest
Procedure, shortened: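 Viability of mixed-cell spheroids was determined after exposure to pairwise combinations, one partner being inavolisib, alpelisib, duvelisib or copanlisib. Highest tested concentration matched clinical Cmax where known and 10 microM where not, descending in half-log steps.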

[1] = second compound 0.00316 µM, first compound 0.0316 µM
[2] = second compound 0.00316 µM, first compound 0.1 µM
[3] = second compound 0.00316 µM, first compound 0.316 µM
[4] = second compound 0.00316 µM, first compound 1 µM
[5] = second compound 0.00316 µM, first compound 3.16 µM
[6] = second compound 0.00316 µM, first compound 10 µM
[7] = second compound 0.01 µM, first compound 0.0316 µM
[8] = second compound 0.01 µM, first compound 0.1 µM
[9] = second compound 0.01 µM, first compound 0.316 µM
[10] = second compound 0.01 µM, first compound 1 µM
[11] = second compound 0.01 µM, first compound 3.16 µM
[12] = second compound 0.01 µM, first compound 10 µM
[13] = second compound 0.0316 µM, first compound 0.0316 µM
[14] = second compound 0.0316 µM, first compound 0.1 µM
[15] = second compound 0.0316 µM, first compound 0.316 µM
[16] = second compound 0.0316 µM, first compound 1 µM
[17] = second compound 0.0316 µM, first compound 3.16 µM
[18] = second compound 0.0316 µM, first compound 10 µM
[19] = second compound 0.1 µM, first compound 0.0316 µM
[20] = second compound 0.1 µM, first compound 0.1 µM
[21] = second compound 0.1 µM, first compound 0.316 µM
[22] = second compound 0.1 µM, first compound 1 µM
[23] = second compound 0.1 µM, first compound 3.16 µM
[24] = second compound 0.1 µM, first compound 10 µM
[25] = second compound 0.316 µM, first compound 0.0316 µM
[26] = second compound 0.316 µM, first compound 0.1 µM
[27] = second compound 0.316 µM, first compound 0.316 µM
[28] = second compound 0.316 µM, first compound 1 µM
[29] = second compound 0.316 µM, first compound 3.16 µM
[30] = second compound 0.316 µM, first compound 10 µM
[31] = second compound 1 µM, first compound 0.0316 µM
[32] = second compound 1 µM, first compound 0.1 µM
[33] = second compound 1 µM, first compound 0.316 µM
[34] = second compound 1 µM, first compound 1 µM
[35] = second compound 1 µM, first compound 3.16 µM
[36] = second compound 1 µM, first compound 10 µM
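Note: viability read 7 days after compound addition.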

CC(C)NCC(C(=O)N1CCN(c2ncnc3c2C(C)CC3O)CC1)c1ccc(Cl)cc1 (stereo unspecified) + COc1c(OCCCN2CCOCC2)ccc2c3n(c(=NC(=O)c4cnc(N)nc4)nc12)CCN3
> 10 µM: IC50 (second compound 0.00316 µM) | IC50 (second compound 0.01 µM) | IC50 (second compound 0.0316 µM) | IC50 (second compound 0.1 µM)
inactive: viability, T/C [1] 94.2% | viability, T/C [2] 96.2% | viability, T/C [3] 94.3% | viability, T/C [4] 94.7% | viability, T/C [5] 95% | viability, T/C [6] 71.1% | viability, T/C [7] 96.3% | viability, T/C [8] 93.7% | viability, T/C [9] 93.2% | viability, T/C [10] 91.2% | viability, T/C [11] 97.8% | viability, T/C [12] 71.4% | viability, T/C [13] 84.9% | viability, T/C [14] 84.9% | viability, T/C [15] 81.8% | viability, T/C [16] 81.6% | viability, T/C [17] 83.3% | viability, T/C [18] 65.8% | viability, T/C [19] 67.8% | viability, T/C [20] 71.1% | viability, T/C [21] 71.6% | viability, T/C [22] 69.7% | viability, T/C [23] 67.5% | viability, T/C [24] 55.7% | viability, T/C [25] 43.6% | viability, T/C [26] 44.8% | viability, T/C [27] 44% | viability, T/C [28] 47.7% | viability, T/C [29] 49.2% | viability, T/C [30] 44.1% | viability, T/C [31] 32.9% | viability, T/C [32] 30.8% | viability, T/C [33] 35.8% | viability, T/C [34] 31% | viability, T/C [35] 42% | viability, T/C [36] 33.3%
< 0.0316 µM: IC50 (second compound 0.316 µM) | IC50 (second compound 1 µM)

CCN1CCN(Cc2ccc(Nc3ncc(F)c(-c4cc(F)c5nc(C)n(C(C)C)c5c4)n3)nc2)CC1 + COc1c(OCCCN2CCOCC2)ccc2c3n(c(=NC(=O)c4cnc(N)nc4)nc12)CCN3
< 0.00316 µM: IC50 (second compound 0.316 µM) | IC50 (second compound 1 µM)
inactive: viability, T/C (second compound 0.00316 µM, first compound 0.00316 µM) 91.3% | viability, T/C (second compound 0.00316 µM, first compound 0.01 µM) 105% | viability, T/C [1] 97.3% | viability, T/C [2] 98.7% | viability, T/C [3] 94.2% | viability, T/C [4] 81.7% | viability, T/C (second compound 0.01 µM, first compound 0.00316 µM) 103% | viability, T/C (second compound 0.01 µM, first compound 0.01 µM) 89.4% | viability, T/C [7] 87.6% | viability, T/C [8] 90.2% | viability, T/C [9] 89% | viability, T/C [10] 67% | viability, T/C (second compound 0.0316 µM, first compound 0.00316 µM) 84.3% | viability, T/C (second compound 0.0316 µM, first compound 0.01 µM) 79.1% | viability, T/C [13] 76.8% | viability, T/C [14] 70.8% | viability, T/C [15] 67.2% | viability, T/C [16] 55.5% | viability, T/C (second compound 0.1 µM, first compound 0.00316 µM) 66.3% | viability, T/C (second compound 0.1 µM, first compound 0.01 µM) 65.6% | viability, T/C [19] 57.2% | viability, T/C [20] 47.5% | viability, T/C [21] 49.2% | viability, T/C [22] 50.8% | viability, T/C (second compound 0.316 µM, first compound 0.00316 µM) 53.5% | viability, T/C (second compound 0.316 µM, first compound 0.01 µM) 44.7% | viability, T/C [25] 39.6% | viability, T/C [26] 37.3% | viability, T/C [27] 41.6% | viability, T/C [28] 45% | viability, T/C (second compound 1 µM, first compound 0.00316 µM) 33.6% | viability, T/C (second compound 1 µM, first compound 0.01 µM) 35.6% | viability, T/C [31] 25.3% | viability, T/C [32] 32.3% | viability, T/C [33] 35.9% | viability, T/C [34] 36.7%
0.0888 µM: IC50 (second compound 0.1 µM)
> 1 µM: IC50 (second compound 0.00316 µM) | IC50 (second compound 0.01 µM) | IC50 (second compound 0.0316 µM)

Cn1ncc(Cl)c1-c1cc(C(=O)NC(CN)Cc2cccc(F)c2)sc1Cl (stereo unspecified) + COc1c(OCCCN2CCOCC2)ccc2c3n(c(=NC(=O)c4cnc(N)nc4)nc12)CCN3
< 0.0316 µM: IC50 (second compound 0.316 µM) | IC50 (second compound 1 µM)
4.9 µM: IC50 (second compound 0.0316 µM)
5.8 µM: IC50 (second compound 0.01 µM)
inactive: viability, T/C [1] 95.1% | viability, T/C [2] 102% | viability, T/C [3] 89.5% | viability, T/C [4] 81.8% | viability, T/C [5] 75.9% | viability, T/C [6] 30.8% | viability, T/C [7] 109% | viability, T/C [8] 95.4% | viability, T/C [9] 87.4% | viability, T/C [10] 76% | viability, T/C [11] 69.6% | viability, T/C [12] 35.6% | viability, T/C [13] 90% | viability, T/C [14] 93.2% | viability, T/C [15] 82.4% | viability, T/C [16] 75.3% | viability, T/C [17] 60.2% | viability, T/C [18] 34% | viability, T/C [19] 71.1% | viability, T/C [20] 70.3% | viability, T/C [21] 70.1% | viability, T/C [22] 60% | viability, T/C [23] 54.3% | viability, T/C [24] 32.2% | viability, T/C [25] 47.9% | viability, T/C [26] 50.4% | viability, T/C [27] 45.2% | viability, T/C [28] 47.3% | viability, T/C [29] 47.5% | viability, T/C [30] 22.1% | viability, T/C [31] 34.7% | viability, T/C [32] 35.6% | viability, T/C [33] 35.5% | viability, T/C [34] 33.9% | viability, T/C [35] 34.8% | viability, T/C [36] 20%
5.92 µM: IC50 (second compound 0.00316 µM)
3.61 µM: IC50 (second compound 0.1 µM)
